According to patent US9783505B2, “Substituted diaminopyrimidyl compounds, compositions thereof, and methods of treatment therewith” (Signal Pharmaceuticals, LLC, priority 2013, dated 2017):
Read-outs that look alike come from different tables or passages of the source.

Target: T1, His-PKC-theta (Homo sapiens, UniProt Q04759)
T1 construct: His; purchased Invitrogen
Experiment: PKC-theta Assay (384-well time resolved fluorescence, IMAP TR-FRET)
Type: biochemical
Details: read-out: Act. Level (IC50 in the PKC-theta Assay)
Method: PKC-theta Assay. A 384-well time resolved fluorescence assay was used to monitor PKC-theta activity. The PKC-theta assay was run in the following assay buffer: 50 mM HEPES pH 7.6, 10 mM MgCl2, 1 mM DTT, 0.01% Triton X-100, 0.01% BSA and 0.1 mM EDTA. To initiate the reaction, 200 nM of Fam-labeled S6-derived peptide (Molecular Devices) and 10 μM of ATP were mixed with 142 pM of His-PKC-theta (Invitrogen) for a total assay volume of 25 μL in each well. The assay was incubated at room temperature for 2 hours and terminated using a 60 μL/well mixture of Detection Binding Solution: 70% IMAP Progressive Binding Buffer A, 30% IMAP Progressive Binding Buffer B, 1:600 Progressive Binding Reagent, and 1:400 TR-FRET Tb Donor (Molecular Devices). The assay plates were then incubated overnight at room temperature and read on a Perkin-Elmer Envision Reader.

T1 sequence (Q04759 whole entry): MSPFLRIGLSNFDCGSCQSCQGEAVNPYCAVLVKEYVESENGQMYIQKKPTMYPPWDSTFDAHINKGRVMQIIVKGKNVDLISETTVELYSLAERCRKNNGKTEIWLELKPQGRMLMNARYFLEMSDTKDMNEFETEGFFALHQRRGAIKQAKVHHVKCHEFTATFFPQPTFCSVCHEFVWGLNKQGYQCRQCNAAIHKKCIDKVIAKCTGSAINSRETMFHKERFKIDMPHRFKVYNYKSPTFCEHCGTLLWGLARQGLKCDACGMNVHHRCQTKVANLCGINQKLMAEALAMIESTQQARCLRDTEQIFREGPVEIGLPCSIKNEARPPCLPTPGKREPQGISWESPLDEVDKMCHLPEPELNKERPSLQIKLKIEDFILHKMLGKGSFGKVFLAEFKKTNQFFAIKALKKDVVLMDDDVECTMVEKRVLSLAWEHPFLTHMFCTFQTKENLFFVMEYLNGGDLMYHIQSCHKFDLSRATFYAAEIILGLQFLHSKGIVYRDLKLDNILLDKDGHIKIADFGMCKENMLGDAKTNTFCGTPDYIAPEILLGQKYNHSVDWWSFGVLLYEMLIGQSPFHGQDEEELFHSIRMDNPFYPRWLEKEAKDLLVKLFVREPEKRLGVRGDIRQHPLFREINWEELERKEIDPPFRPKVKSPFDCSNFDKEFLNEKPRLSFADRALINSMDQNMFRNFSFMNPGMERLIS

| SMILES | IC50 [nM] | IC50 (Table 2) [nM] |
| --- | --- | --- |
| CC1(C)C[C@H](Nc2nc(NCc3cncnc3-c3ccc(F)cc3)ncc2C(F)(F)F)CC[C@@H]1O [Cmpd 44] | < 100 |  |
| Cc1cccc(Oc2ncncc2CNc2ncc(C#N)c(N[C@H]3CC[C@@H](O)CC3)n2)c1 [Cmpd 45] | < 100 |  |
| C[C@]1(O)CC[C@@H](Nc2nc(NCc3cnccc3C(F)(F)F)ncc2C(F)(F)F)CC1 [Cmpd 46] | < 100 |  |
| CC1(C)[C@@H](CO)C[C@H]1Nc1nc(NCc2c[n+]([O-])ccc2C(F)(F)F)ncc1C(F)(F)F [Cmpd 48] | < 100 |  |
| CC(C)(F)c1ncncc1CNc1ncc(C#N)c(N[C@H]2CC[C@@](C)(O)CC2)n1 [Cmpd 50] | < 100 |  |
| CC1(C)C[C@@H](Nc2nc(NCC(O)c3ccc(OC(F)F)cc3)ncc2C#N)CC[C@H]1O (stereo partly shown) [Cmpd 50] |  | 2000 to 10000 |
| CC1(C)C[C@H](Nc2nc(NCCc3ccc(OC4CCCC4)cc3)ncc2C#N)CC[C@@H]1O [Cmpd 51] |  | 100 to 800 |
| N#Cc1cnc(NCc2cncnc2-c2ccccc2)nc1N[C@H]1CC[C@@H](O)CC1 [Cmpd 52] | < 100 |  |
| CC1(C)C[C@H](Nc2nc(NCCc3cc(C(F)(F)F)cc(C(F)(F)F)c3)ncc2C#N)CC[C@@H]1O [Cmpd 54] |  | 800 to 2000 |
| Cc1cc(C(F)(F)F)c(CNc2ncc(C(F)(F)F)c(N[C@@H]3CC[C@H](O)C(C)(C)C3)n2)c[n+]1[O-] [Cmpd 55] | < 100 |  |
| CC(C)c1ncncc1CNc1ncc(C#N)c(N[C@H]2CC[C@@](C)(O)CC2)n1 [Cmpd 56] | < 100 |  |
| CC(O)(CNc1ncc(C#N)c(N[C@@H]2CC[C@H](O)C(C)(C)C2)n1)c1ccccc1 (stereo partly shown) [Cmpd 56] |  | 800 to 2000 |
| CCOc1ncncc1CNc1ncc(C(F)(F)F)c(N[C@@H]2C[C@H](O)C2(C)C)n1 [Cmpd 57] | < 100 |  |
| CC1(C)[C@@H](O)C[C@H]1Nc1nc(NCc2cncnc2C(F)(F)F)ncc1C#N [Cmpd 61] | < 100 |  |
| COc1ncncc1CNc1ncc(C(F)(F)F)c(N[C@@H]2C[C@H](O)C2(C)C)n1 [Cmpd 62] | < 100 |  |
| C[C@@H]1CC[C@H](Nc2nc(NCc3cnccc3C(F)(F)F)ncc2C(F)(F)F)C[C@H]1O [Cmpd 63] | < 100 |  |
| CCc1ncncc1CNc1ncc(C#N)c(NC2CC(C)(O)C2(C)C)n1 (stereo not shown) [Cmpd 65] | < 100 |  |
| CC1(C)C[C@H](Nc2nc(NCC(=O)c3ccc(F)cc3F)ncc2C#N)CC[C@@H]1O [Cmpd 66] |  | 100 to 800 |
| CC1(C)[C@H](CO)C[C@H]1Nc1nc(NCc2cnccc2C(F)(F)F)ncc1C(F)(F)F [Cmpd 66] | < 100 |  |
| CNC(=O)[C@H]1CC[C@@H](Nc2nc(NCc3cnccc3C(F)(F)F)ncc2C#N)CC1 [Cmpd 68] | < 100 |  |

| SMILES | IC50 [nM] | IC50 (Table 2) [nM] |
| --- | --- | --- |
| O[C@H]1CC[C@@H](Nc2nc(NCc3cnccc3C(F)(F)F)ncc2C(F)(F)F)CC1 [Cmpd 69] | < 100 |  |
| CC1(C)[C@@H](O)C[C@H]1Nc1nc(NCc2cncnc2-c2ccc(F)cc2)ncc1C(F)(F)F [Cmpd 70] | < 100 |  |
| C[C@]1(O)CC[C@@H](Nc2nc(NCc3cnccc3C(F)(F)F)ncc2C#N)CC1 [Cmpd 71] | < 100 |  |
| COC1CC(Nc2nc(NCc3cnccc3C(F)(F)F)ncc2C(F)(F)F)C1(C)C (stereo not shown) [Cmpd 74] | < 100 |  |
| N#Cc1cnc(NCc2cnccc2C(F)(F)F)nc1N[C@H]1CC[C@@H](O)CC1 [Cmpd 75] | < 100 |  |
| O[C@H]1CC[C@@H](Nc2nc(NCc3cncnc3-c3ccccc3)ncc2C(F)(F)F)CC1 [Cmpd 76] | < 100 |  |
| CC1(C)C(Nc2nc(NCc3cncnc3OCCC(F)(F)F)ncc2C#N)C[C@H]1O (stereo partly shown) [Cmpd 77] | < 100 |  |
| CC1(C)C[C@H](Nc2nc(NCCc3ccc(Oc4ccccc4)cc3)ncc2C#N)CC[C@@H]1O [Cmpd 79] |  | 100 to 800 |
| CC1(C)[C@@H](O)C[C@H]1Nc1nc(NCc2cncnc2-c2ccc(F)cc2)ncc1C#N [Cmpd 79] | < 100 |  |
| CC1(C)C[C@H](Nc2nc(NCC(O)c3ccc(O)cc3)ncc2C#N)CC[C@@H]1O (stereo partly shown) [Cmpd 80] |  | 2000 to 10000 |
| C[C@]1(O)CC[C@@H](Nc2nc(NCc3cncnc3-c3ccccc3)ncc2C(F)(F)F)CC1 [Cmpd 80] | < 100 |  |
| O[C@H]1CC[C@@H](Nc2nc(NCc3cncnc3C(F)(F)F)ncc2C(F)(F)F)CC1 [Cmpd 81] | < 100 |  |
| CC1(C)C[C@H](Nc2nc(NCCc3ccc(N4CCCCC4)cc3)ncc2C#N)CC[C@@H]1O [Cmpd 83] |  | 100 to 800 |
| CC1(C)[C@H](O)C[C@@H]1Nc1nc(NCc2cncnc2OCCC(F)(F)F)ncc1C(F)(F)F [Cmpd 83] | < 100 |  |
| C[C@]1(O)CC[C@@H](Nc2nc(NCc3cncnc3-c3ccccc3)ncc2C#N)CC1 [Cmpd 84] | < 100 |  |
| CC1(C)C(O)C[C@@H]1Nc1nc(NCc2cncnc2OCCC(F)(F)F)ncc1C(F)(F)F (stereo partly shown) [Cmpd 85] | < 100 |  |
| C[C@]1(O)CC[C@@H](Nc2nc(NCc3cncnc3-c3ccc(F)cc3)ncc2C#N)CC1 [Cmpd 86] | < 100 |  |
| C[C@@H]1CC[C@H](Nc2nc(NCc3cnccc3C(F)(F)F)ncc2C#N)C[C@H]1O [Cmpd 87] | < 100 |  |
| CC(F)(F)COc1ncncc1CNc1ncc(C#N)c(NC2C[C@@H](O)C2(C)C)n1 (stereo partly shown) [Cmpd 88] | < 100 |  |
| CC1(C)[C@H](O)C[C@@H]1Nc1nc(NCc2cncnc2OCCC(F)(F)F)ncc1C#N [Cmpd 89] | < 100 |  |

More lines, now with the values ahead:

| IC50 [nM] | IC50 (Table 2) [nM] | SMILES |
| --- | --- | --- |
|  | 100 to 800 | CC1(C)[C@@H](O)C[C@H]1Nc1nc(NCCc2cccc(C(F)(F)F)c2)ncc1C#N [Cmpd 45] |
|  | 800 to 2000 | CC1(C)[C@@H](O)C[C@H]1Nc1nc(NCCc2ccc(C(F)(F)F)cc2)ncc1C#N [Cmpd 46] |
|  | < 100 | CC1(C)[C@@H](O)C[C@H]1Nc1nc(NCCc2ccc(-n3cccn3)cc2)ncc1C#N [Cmpd 48] |
| < 100 |  | CC1(C)[C@H](CO)C[C@H]1Nc1nc(NCc2cnccc2C(F)(F)F)ncc1C#N [Cmpd 51] |
|  | 100 to 800 | CC1(C)C[C@H](Nc2nc(NCCc3ccc(CN4CCCC4=O)cc3)ncc2C#N)CC[C@@H]1O [Cmpd 52] |
|  | 100 to 800 | CC1(C)C[C@H](Nc2nc(NCCc3ccc(OC(F)(F)F)cc3)ncc2C#N)CC[C@@H]1O [Cmpd 53] |
| < 100 |  | CC1(C)[C@@H](CO)C[C@H]1Nc1nc(NCc2c[n+]([O-])ccc2C(F)(F)F)ncc1C#N [Cmpd 53] |
| < 100 |  | CC(C)c1ncncc1CNc1ncc(C#N)c(N[C@@H]2C[C@H](CO)C2(C)C)n1 [Cmpd 54] |
|  | 100 to 800 | CC1(C)C[C@H](Nc2nc(NCCc3ccccc3OC(F)(F)F)ncc2C#N)CC[C@@H]1O [Cmpd 55] |
|  | 100 to 800 | CC1(C)C[C@H](Nc2nc(NCCc3ccc(CO)cc3)ncc2C#N)CC[C@@H]1O [Cmpd 57] |
|  | 800 to 2000 | CC1(C)C[C@H](Nc2nc(NCCc3cccc(-c4ccccc4)c3)ncc2C#N)CC[C@@H]1O [Cmpd 58] |
| < 100 |  | CCOc1ncncc1CNc1ncc(C#N)c(N[C@@H]2C[C@H](O)C2(C)C)n1 [Cmpd 58] |
|  | 2000 to 10000 | CN(C)C(=O)c1cccc(CCNc2ncc(C#N)c(N[C@@H]3CC[C@H](O)C(C)(C)C3)n2)c1 [Cmpd 61] |
|  | 100 to 800 | COCCOc1ccc(CCNc2ncc(C#N)c(N[C@@H]3CC[C@H](O)C(C)(C)C3)n2)cc1 [Cmpd 62] |
|  | 100 to 800 | CC1(C)C[C@H](Nc2nc(NCCc3ccc(S(C)(=O)=O)cc3)ncc2C#N)CC[C@@H]1O [Cmpd 63] |
| < 100 |  | CC1(C)[C@@H](CO)C[C@H]1Nc1nc(NCc2cnccc2C(F)(F)F)ncc1C#N [Cmpd 64] |
|  | < 100 | Cc1ncc(-c2ccc(CCNc3ncc(C#N)c(N[C@@H]4CC[C@H](O)C(C)(C)C4)n3)cc2)s1 [Cmpd 64] |
|  | 100 to 800 | CC1(C)C[C@H](Nc2nc(NCCc3ccc(S(N)(=O)=O)cc3)ncc2C#N)CC[C@@H]1O [Cmpd 65] |

| IC50 [nM] | IC50 (Table 2) [nM] | SMILES |
| --- | --- | --- |
|  | 100 to 800 | CC1(C)C[C@H](Nc2nc(NCCc3ccccc3O)ncc2C#N)CC[C@@H]1O [Cmpd 67] |
| < 100 |  | CCc1ncncc1CNc1ncc(C#N)c(N[C@@H]2C[C@H](O)C2(C)C)n1 [Cmpd 67] |
|  | 100 to 800 | N#Cc1cnc(NCCc2cccc(Cl)c2)nc1N[C@H]1CC[C@@H](O)CC1 [Cmpd 68] |
|  | 800 to 2000 | N#Cc1cnc(NCCc2cccc(Cl)c2)nc1N[C@H]1CC[C@H](O)CC1 [Cmpd 69] |
|  | 800 to 2000 | N#Cc1cnc(NCCc2cccc(Cl)c2)nc1N[C@H]1C[C@@H](O)C1 [Cmpd 70] |
|  | 2000 to 10000 | N#Cc1cnc(NCCc2cccc(Cl)c2)nc1N[C@H]1C[C@H](O)C1 [Cmpd 71] |
|  | 800 to 2000 | N#Cc1ccc(CCNc2ncc(C#N)c(N[C@H]3CC[C@@H](O)CC3)n2)cc1 [Cmpd 73] |
|  | < 100 | CC1(C)[C@@H](CO)C[C@H]1Nc1nc(NCCc2cccc(Cl)c2)ncc1C#N [Cmpd 74] |
|  | 800 to 2000 | CC1(C)[C@H](CO)C[C@@H]1Nc1nc(NCCc2cccc(Cl)c2)ncc1C#N [Cmpd 75] |
|  | < 100 | CC1(C)[C@H](CO)C[C@H]1Nc1nc(NCCc2cccc(Cl)c2)ncc1C#N [Cmpd 76] |
|  | 2000 to 10000 | CC1(C)[C@@H](CO)C[C@@H]1Nc1nc(NCCc2cccc(Cl)c2)ncc1C#N [Cmpd 77] |
|  | 100 to 800 | CC1(C)C[C@H](Nc2nc(NCC(=O)c3ccc(Cl)cc3)ncc2C#N)CC[C@@H]1O [Cmpd 81] |
|  | 100 to 800 | CC1(C)[C@@H](O)C[C@H]1Nc1nc(NCCc2ccc(O)cc2)ncc1C#N [Cmpd 84] |
|  | 100 to 800 | COc1ccccc1CCNc1ncc(C#N)c(N[C@@H]2C[C@H](O)C2(C)C)n1 [Cmpd 85] |
|  | < 100 | CC1(C)[C@@H](O)C[C@H]1Nc1nc(NCCc2cccc(Cl)c2)ncc1C#N [Cmpd 86] |
|  | < 100 | CC1(C)C[C@H](Nc2nc(NCCc3cccc(Cl)c3F)ncc2C#N)CC[C@@H]1O [Cmpd 87] |
|  | < 100 | CC1(C)C[C@H](Nc2nc(NCCc3ccc(F)c(Cl)c3)ncc2C#N)CC[C@@H]1O [Cmpd 88] |
|  | < 100 | CC1(C)C[C@H](Nc2nc(NCCc3cc(Cl)ccc3F)ncc2C#N)CC[C@@H]1O [Cmpd 89] |
